{"source": "patent US20080182822A1", "about": "“Liquid Pharmaceutical Compositions Comprising a Bisphosphonate Compound” (Besins Healthcare SA, priority 2006, published 2008)", "conditions": "rat; for Faeces Excretion, Amount Excreted (% of Dose), 8 hours / Urinary Excretion, Amount Excreted (% of Dose), 8 hours: collection 0-8 hours; for Faeces Excretion, Amount Excreted (% of Dose), 72 hours / Urinary Excretion, Amount Excreted (% of Dose), 72 hours: collection 48-72 hours; for Faeces Excretion, Amount Excreted (% of Dose), 96 hours / Urinary Excretion, Amount Excreted (% of Dose), 96 hours: collection 72-96 hours; for Faeces Excretion, Amount Excreted (% of Dose), 120 hours / Urinary Excretion, Amount Excreted (% of Dose), 120 hours: collection 96-120 hours; for Faeces Excretion, Amount Excreted (% of Dose), 144 hours / Urinary Excretion, Amount Excreted (% of Dose), 144 hours: collection 120-144 hours; for Faeces Excretion, Amount Excreted (% of Dose), 168 hours / Urinary Excretion, Amount Excreted (% of Dose), 168 hours: collection 144-168 hours; for Recovery from Treated Skin, % of Dose: dermal (Group 2)", "key": {"[1]": {"conditions": "dermal 1.9 mg (Group 2), individual animals"}, "[2]": {"conditions": "dermal 1.9 mg (Group 2), collection 8-24 hours, individual animals"}, "[3]": {"conditions": "dermal 1.9 mg (Group 2), collection 24-48 hours, individual animals"}, "[4]": {"conditions": "dermal 1.9 mg (Group 2), necropsy Day 4, Mean"}, "[5]": {"conditions": "dermal 1.9 mg (Group 2), necropsy Day 4, individual animals"}, "[6]": {"conditions": "dermal 1.9 mg (Group 2), necropsy Day 8, Mean"}, "[7]": {"conditions": "dermal 1.9 mg (Group 2), necropsy Day 8, individual animals"}}, "note": "Values joined by “and” are separate entries in the source; they are usually repeats but may differ in a detail not shown here. Equal entries are not always repeated. Where two headings read alike, the source gives them in different places.", "data": [{"smiles": "NCCCC(O)(P(=O)(O)O)P(=O)(O)O", "note": "[14C-alendronate]", "values": [{"measurement": "Faeces Excretion, Total Excretion (% of Dose), 0-168 hours", "setting": "dermal 1.9 mg (Group 2), Mean", "result": "approximately 2 % of Dose"}, {"measurement": "Urinary Excretion, Total Excretion (% of Dose), 0-72 hours", "setting": "dermal 1.9 mg (Group 2), Mean", "result": "0.40% of Dose"}, {"measurement": "Faeces Excretion, Amount Excreted (% of Dose), 8 hours", "setting": "dermal 1.9 mg (Group 2), Mean", "result": "0.004% of Dose"}, {"measurement": "Urinary Excretion, Amount Excreted (% of Dose), 8 hours", "setting": "dermal 1.9 mg (Group 2), Mean", "result": "0.17% of Dose"}, {"measurement": "Faeces Excretion, Amount Excreted (% of Dose), 8 hours", "setting": "[1]", "result": "0.004% of Dose (2×) and 0.000% of Dose (2×) and 0.001% of Dose (2×) and 0.014% of Dose and 0.003% of Dose"}, {"measurement": "Urinary Excretion, Amount Excreted (% of Dose), 8 hours", "setting": "[1]", "result": "0.15% of Dose and 0.02% of Dose and 0.05% of Dose and 0.08% of Dose (2×) and 0.22% of Dose and 0.14% of Dose and 0.09% of Dose and 0.83% of Dose and 0.07% of Dose"}, {"measurement": "Urinary Excretion, Amount Excreted (% of Dose), 24 hours", "setting": "dermal 1.9 mg (Group 2), collection 8-24 hours, Mean", "result": "0.12% of Dose"}, {"measurement": "Faeces Excretion, Amount Excreted (% of Dose), 24 hours", "setting": "[2]", "result": "0.047% of Dose and 0.001% of Dose and 0.066% of Dose"}, {"measurement": "Urinary Excretion, Amount Excreted (% of Dose), 24 hours", "setting": "[2]", "result": "0.07% of Dose (3×) and 0.06% of Dose (2×) and 0.05% of Dose and 0.27% of Dose and 0.33% of Dose and 0.16% of Dose and 0.11% of Dose"}, {"measurement": "Urinary Excretion, Amount Excreted (% of Dose), 48 hours", "setting": "dermal 1.9 mg (Group 2), collection 24-48 hours, Mean", "result": "0.06% of Dose"}, {"measurement": "Faeces Excretion, Amount Excreted (% of Dose), 48 hours", "setting": "[3]", "result": "0.68% of Dose and 0.30% of Dose and 0.58% of Dose and 0.60% of Dose and 0.53% of Dose and 0.52% of Dose"}, {"measurement": "Urinary Excretion, Amount Excreted (% of Dose), 48 hours", "setting": "[3]", "result": "0.06% of Dose (5×) and 0.02% of Dose (2×) and 0.14% of Dose and 0.12% of Dose and 0.03% of Dose"}, {"measurement": "Faeces Excretion, Amount Excreted (% of Dose), 72 hours", "setting": "dermal 1.9 mg (Group 2), Mean", "result": "0.16% of Dose"}, {"measurement": "Urinary Excretion, Amount Excreted (% of Dose), 72 hours", "setting": "dermal 1.9 mg (Group 2), Mean", "result": "0.04% of Dose"}, {"measurement": "Faeces Excretion, Amount Excreted (% of Dose), 72 hours", "setting": "[1]", "result": "0.33% of Dose and 0.19% of Dose and 0.15% of Dose and 0.10% of Dose and 0.46% of Dose and 0.17% of Dose and 0.05% of Dose and 0.02% of Dose (2×)"}, {"measurement": "Urinary Excretion, Amount Excreted (% of Dose), 72 hours", "setting": "[1]", "result": "0.06% of Dose (2×) and 0.02% of Dose (3×) and 0.03% of Dose (2×) and 0.01% of Dose (2×) and 0.13% of Dose"}, {"measurement": "Faeces Excretion, Amount Excreted (% of Dose), 96 hours", "setting": "dermal 1.9 mg (Group 2), Mean", "result": "0.10% of Dose"}, {"measurement": "Urinary Excretion, Amount Excreted (% of Dose), 96 hours", "setting": "dermal 1.9 mg (Group 2), Mean", "result": "0.03% of Dose"}, {"measurement": "Faeces Excretion, Amount Excreted (% of Dose), 96 hours", "setting": "[1]", "result": "0.13% of Dose and 0.05% of Dose (2×) and 0.09% of Dose and 0.18% of Dose"}, {"measurement": "Urinary Excretion, Amount Excreted (% of Dose), 96 hours", "setting": "[1]", "result": "0.05% of Dose and 0.03% of Dose (2×) and 0.02% of Dose and 0.01% of Dose"}, {"measurement": "Faeces Excretion, Amount Excreted (% of Dose), 120 hours", "setting": "dermal 1.9 mg (Group 2), Mean", "result": "0.07% of Dose"}, {"measurement": "Urinary Excretion, Amount Excreted (% of Dose), 120 hours", "setting": "dermal 1.9 mg (Group 2), Mean", "result": "0.02% of Dose"}, {"measurement": "Faeces Excretion, Amount Excreted (% of Dose), 120 hours", "setting": "[1]", "result": "0.13% of Dose and 0.05% of Dose (2×) and 0.02% of Dose and 0.10% of Dose"}, {"measurement": "Urinary Excretion, Amount Excreted (% of Dose), 120 hours", "setting": "[1]", "result": "0.06% of Dose and 0.02% of Dose (2×) and 0.01% of Dose (2×)"}, {"measurement": "Faeces Excretion, Amount Excreted (% of Dose), 144 hours", "setting": "dermal 1.9 mg (Group 2), Mean", "result": "0.05% of Dose"}, {"measurement": "Urinary Excretion, Amount Excreted (% of Dose), 144 hours", "setting": "dermal 1.9 mg (Group 2), Mean", "result": "0.01% of Dose"}, {"measurement": "Faeces Excretion, Amount Excreted (% of Dose), 144 hours", "setting": "[1]", "result": "0.07% of Dose and 0.04% of Dose (2×) and 0.03% of Dose and 0.09% of Dose"}, {"measurement": "Urinary Excretion, Amount Excreted (% of Dose), 144 hours", "setting": "[1]", "result": "0.02% of Dose and 0.01% of Dose (4×)"}, {"measurement": "Faeces Excretion, Amount Excreted (% of Dose), 168 hours", "setting": "dermal 1.9 mg (Group 2), Mean", "result": "0.00% of Dose"}, {"measurement": "Urinary Excretion, Amount Excreted (% of Dose), 168 hours", "setting": "dermal 1.9 mg (Group 2), Mean", "result": "0.00% of Dose"}, {"measurement": "Faeces Excretion, Amount Excreted (% of Dose), 168 hours", "setting": "[1]", "result": "0.01% of Dose (3×) and 0.00% of Dose (2×)"}, {"measurement": "Urinary Excretion, Amount Excreted (% of Dose), 168 hours", "setting": "[1]", "result": "0.01% of Dose and 0.00% of Dose (4×)"}, {"measurement": "Faeces Excretion, Total Excretion (% of Dose), 0-72 hours", "setting": "[1]", "result": "0.53% of Dose and 0.88% of Dose and 0.59% of Dose"}, {"measurement": "Faeces Excretion, Total Excretion (% of Dose), 0-168 hours", "setting": "[1]", "result": "0.66% of Dose"}, {"measurement": "Urinary Excretion, Total Excretion (% of Dose), 0-72 hours", "setting": "[1]", "result": "0.34% of Dose and 0.16% of Dose and 0.20% of Dose and 0.17% of Dose and 0.57% of Dose and 0.74% of Dose and 0.21% of Dose and 0.23% of Dose and 0.22% of Dose"}, {"measurement": "Concentration in bone, Femur", "setting": "[4]", "result": 0.060, "unit": "μg 14C-alendronate/g bone"}, {"measurement": "Concentration in bone, Tibia", "setting": "[4]", "result": 0.039, "unit": "μg 14C-alendronate/g bone"}, {"measurement": "Concentration in bone, Femur", "setting": "[5]", "result": "0.222 μg 14C-alendronate/g bone and 0.018 μg 14C-alendronate/g bone (2×) and 0.015 μg 14C-alendronate/g bone and 0.026 μg 14C-alendronate/g bone"}, {"measurement": "Concentration in bone, Tibia", "setting": "[5]", "result": "0.130 μg 14C-alendronate/g bone and 0.039 μg 14C-alendronate/g bone and 0.016 μg 14C-alendronate/g bone and 0.002 μg 14C-alendronate/g bone and 0.011 μg 14C-alendronate/g bone"}, {"measurement": "Concentration in bone, Femur", "setting": "[6]", "result": 0.029, "unit": "μg 14C-alendronate/g bone"}, {"measurement": "Concentration in bone, Tibia", "setting": "[6]", "result": 0.017, "unit": "μg 14C-alendronate/g bone"}, {"measurement": "Concentration in bone, Femur", "setting": "[7]", "result": "0.022 μg 14C-alendronate/g bone and 0.016 μg 14C-alendronate/g bone and 0.011 μg 14C-alendronate/g bone and 0.069 μg 14C-alendronate/g bone"}, {"measurement": "Concentration in bone, Tibia", "setting": "[7]", "result": "0.012 μg 14C-alendronate/g bone and 0.007 μg 14C-alendronate/g bone and 0.031 μg 14C-alendronate/g bone"}, {"measurement": "Recovery from Treated Skin, % of Dose", "setting": "necropsy Day 4, Mean", "result": 0.35, "unit": "%"}, {"measurement": "Recovery from Treated Skin, % of Dose", "setting": "necropsy Day 4, individual animals", "result": "0.35% (2×) and 0.30% and 0.44% and 0.33%"}, {"measurement": "Recovery from Treated Skin, % of Dose", "setting": "necropsy Day 8, Mean", "result": 0.28, "unit": "%"}]}]}
